# Data as given in patent US6838467B2, “Dosing regimen” (Janssen Pharmaceutica N. V., priority 2000, dated 2005).
# Columns and labels:
# Assay type in all cases: in vivo
# [1] = tested on: T24 H-ras transformed NIH3T3 cell tumors; test: Tumor studies in nude mice: T24 H-ras tumors, oral compound 1
# Source text: (§1) Cell Culture: CAPAN-2 human pancreatic carcinoma cells were purchased from the American Type Culture Collection (Rockville, Md.). Cells were maintained in McCoys 5A Medium supplemented with 10% fetal calf serum and penicillin-streptomycin. NIH 3T3 cells transfected with the activated T24 H-ras oncogene (T24 cells ) were obtained from, Janssen Research Foundation (For methods see Parada, L. F., Tabin, C. J., Shih, C., and Weinberg, R Human EJ bladder carcinoma oncogene is
# homologue of Harvey sarcoma virus ras gene. Nature 297: 474-478, 1982.; Santos, E., Tronick, S. R., Aaronson, S. A., Pulciani, S., and Barbacid, M. T24 human bladder carcinoma oncogene is an activated form of the normal human homologue of BALB-and Harvey-MSV transforming genes. Nature 298: 343-347, 1982.) T24 cells were maintained as monolayer cultures in Dulbecco's Modified Eagle's Medium (DMEM) supplemented with 10% Nu-serum Type IV (Collaborative Biomedical Products, Bedford, Mass. and 40 μg/ml G418 (Geneticin®, GIBCO-BRL, Gaithersburg, Md.).
# (§2) Animals: Female nu/nu immunodeficient nude mice (42 days old) were purchased from Charles River Laboratories (Wilmington, Mass.). Mice were housed five per cage in microisolator cages placed in laminar flow shelving to maintain sterility. All bedding, food, water and cages were autoclaved. Animals were handled within the sterile confines of a laminar flow cabinet. The mice were otherwise maintained under standard vivarium conditions. Tumor studies were conducted under a protocol approved by the Institutional Animal Care and Use Committee.
# (§3) Tumor Studies In Nude Mice: Cells growing as monolayers in T150 tissue culture flasks were detached by trypsinization with 10 ml of 0.05% trypsin plus 0.53 mM EDTA per flask. Tumor cell suspensions were pooled and trypsin was inactivated by the addition of serum containing medium (10 ml per 40 ml of trypsin cell suspension). Cells were collected by centrifugation and resuspended in Hank's Balanced Salt Solution (HBSS) warmed to 37° C. A 1.0 ml portion of cell suspension was added to 20 ml of diluent and counted on a Coulter particle counter. The cell suspensions were recentrifuged and resuspended at a concentration of 1×10^6 cell per 0.10 ml of HBSS. Mice were inoculated with a single subcutaneous injection of 0.10 ml of tumor cell suspension in the inguinal region. Mice were housed five per cage with 15 mice assigned to each treatment group. Body weight and tumor size as determined by caliper measurements were measured weekly. The caliper measurements of length and width were multiplied to obtain tumor areas. At the end of study, mice were sacrificed by CO2 asphyxiation.
# Three days after tumor inoculation, the five day treatment with (R)-6-[amino(4-chlorophenyl)(1-methyl-1H-imidazol-5yl)methyl]-4-(3-chlorophenyl)-1-methyl-2(1H)-quinolinone (compound 1) was initiated. Compound 1 was administered once daily by oral gavage in a 20% beta-cyclodextrin vehicle as a volume of 0.10 ml of solution per 10 gm body weight. Control groups received the same dosage volume of the 20% beta-cyclodextrin vehicle.
# Compounds. Compound 1 was prepared for oral administration by dissolving the compound first as a 2× concentrated stock in 40% hydroxypropyl beta cyclodextrin (lot no. 051-071/1) in 0.1 N HCI. Compound 1 was dissolved by stirring vigorously approximately 30 minutes followed by sonication for 10 min. The compound 1 solutions were brought to a final concentration by diluting 1:1 with 0.1 N HCI. The final drug solutions were sterile filtered immediately and transferred to sterile tubes. Solutions were stored refrigerated and protected form light during the course of the study and sterility was maintained by opening solutions under sterile laminar flow conditions.
# [2] = tested on: CAPAN-2 human pancreatic tumors; test: Tumor studies in nude mice: CAPAN-2 tumors, oral compound 1; conditions: for tumor growth, continuous schedule: continuous for 18 days, previous study
# Source text: as §1, §2, §3
# […] […] Control groups received the same dosage volume of the 20% beta-cyclodextrin vehicle.
# […] […] […] […] The final drug solutions were sterile filtered immediately and transferred to sterile tubes. Solutions were stored refrigerated and protected form light during the course of the study and sterility was maintained by opening solutions under sterile laminar flow conditions.
# [3] = tested on: T24 H-ras transformed NIH3T3 cell tumors; test: Tumor studies in nude mice: T24 H-ras tumors, oral compound 1; conditions: for duration of response (tumor suppressive effect): five-day dosing schedule
# [4] = 50, 100 and 200 mg/kg, five-day schedule, day 17
compound,measurement,setting,value
"Cn1cncc1[C@@](N)(c1ccc(Cl)cc1)c1ccc2c(c1)c(-c1cccc(Cl)c1)cc(=O)n2C [compound 1, (R)-6-[amino(4-chlorophenyl)(1-methyl-1H-imidazol-5yl)methyl]-4-(3-chlorophenyl)-1-methyl-2(1H)-quinolinone]",duration of response (tumor suppressive effect),"[1]; 50 mg/kg, five-day dosing schedule",waned by day 14
same,tumor size on day 17,"[1]; 200 mg/kg once daily p.o. for five days (days 3-8 after tumor inoculation), day 17",small tumors
same,reduction of final tumor weights,"[1]; 200 mg/kg, five-day schedule, day 17",90%
same,reduction of tumor growth measured as final tumor area,[1]; [4],"Significant, dose-related reductions"
same,reduction of tumor growth measured as final tumor weights,[1]; [4],"Significant, dose-related reductions"
same,tumor growth after additional 5-day treatment,[1]; additional 5-day treatment with 200 mg/kg starting on day 21,again arrested but not as dramatically as in the initial treatment
same,"tumor growth, continuous schedule",[2]; 50 mg/kg twice daily (100 mg/kg total daily dose),significant reductions of tumor growth
same,"tumor growth, continuous schedule",[2]; 100 mg/kg twice daily (200 mg/kg daily dose),significant reductions of tumor growth
same,tumor growth after day 24 without further treatment,"[2]; 200 mg/kg for five days, no further treatment",returned to the growth rate observed for vehicle treated controls
same,growth of CAPAN-2 tumors,"[2]; 200 mg/kg p.o. once daily for five days, started three days after inoculation",significantly reduced the growth of CAPAN-2 tumors out to day 24
same,tumor growth after additional five-day treatment,"[2]; additional five-day treatment on days 21 to 25, significant on day 28",transient growth arrest
same,duration of response (tumor suppressive effect),[3]; 100 mg/kg,waned by day 14
same,duration of response (tumor suppressive effect),[3]; 200 mg dose,sustained effects out to day 17
same,day by which tumors left untreated returned to rapid control growth rates,"[3]; 200 mg/kg once daily p.o. for five days, no further treatment",≤ 24 days
same,duration of sustained inhibition of tumor growth,[3]; single 200 mg/kg dose three days after tumor inoculation,15 days
same,duration of sustained inhibition of tumor growth,[3]; single 400 mg/kg dose three days after tumor inoculation,15 days
